Data taken from paper PMC3408453, “A Foldamer-Dendrimer Conjugate Neutralizes Synaptotoxic β-Amyloid Oligomers” (PLoS ONE, 2012).
Values joined by “and” are separate entries in the source; they are usually repeats but may differ in a detail not shown here. Identical values can stand only once.

How the values were obtained:
[1] = biological target: T1, Aβ oligomers (Homo sapiens, UniProt P05067); assay: Isothermal titration calorimetry (ITC) with Aβ oligomers; assay type: binding; conditions: 72 μM Aβ oligomer, 288 K
T1 construct: a depsipeptide derivative of Aβ(1–42) was utilized; made in house; host or cells: chemical peptide synthesis (no expression host)
Experimental: (§1) Binding of 7 to the Aβ oligomers was monitored by means of isothermal titration calorimetry (ITC). […] The titrations were run at 288 K in order to improve the signal to noise ratio, and just above the precipitation limit as the ITC method is sensitive to the thermal noise caused by the stirring of large particles. […] These values strongly supported tight binding between the Aβ oligomer species and 7.
Isothermal titrations were performed with a Microcal VP-ITC microcalorimeter. The binding experiments were performed in PBS pH 7.4. The buffer solution was degassed. The concentrations of the ligands and Aβ were corrected for the material content. In individual titrations, 10 μL of ligand was injected from the computer-controlled 300-μL microsyringe at intervals of 300 s into the Aβ oligomer solution dissolved in the same buffer as the ligand. The microsyringe stirring was set to 295 rpm. All measurements were made at 288 K. The Aβ concentrations in the cell were either 72 μM or 36 μM, and the concentrations of 7 were 175 μM and 222 μM respectively. The total ligand concentration was set in the syringe so that the titration stopped when the precipitation became excessive. Control experiments were performed by injecting the ligand into a cell containing buffer with no target, and the heats of dilution were subtracted from those measured in the presence of Aβ. Titrations were also performed with buffer in the syringe and Aβ oligomer sample in the cell to check for the heat response of Aβ dilution itself. The dilution heat of the Aβ oligomer samples was constant and negligible. Since the target is inherently inhomogeneous, and an a priori model of the binding events is not available,. the experimental data were fitted to the two independent site binding model by using a nonlinear least-squares procedure, with ΔHb, ΔHb', Ka, Ka' (association constants), N and N' (number of binding sites for monomer), as adjustable parameters. The exothermic peaks appearing after the fully precipitated phase was reached, were omitted from the regression.

[2] = biological target: T2, monomeric Aβ (Homo sapiens, UniProt P05067); assay: ITC titration with monomeric Aβ sample; assay type: binding
T2 construct: In this work, a depsipeptide derivative of Aβ(1–42) was utilized; made in house; host or cells: chemical peptide synthesis (no expression host)

[3] = biological target: T1, Aβ oligomers; assay: Ligand-induced precipitation during ITC titration, followed by DLS; conditions: 72 μM Aβ oligomer
Experimental: as §1
For DLS measurements, 500 µL Aβ(1–42) solution (c = 72 µM) was prepared in PBS, and placed in a low–volume sizing cell. Size distribution was measured at 25°C on a Malvern Zetasizer Nano ZS Instrument (Malvern Instruments Ltd. Worcestershire, UK) equipped with a He-Ne laser (633 nm) by means of Non-Invasive Back Scatter (NIBS®) technology, which involves detection of the scattered light at an angle of 173°. A titration routine was formulated consisting of 12 independent measurements with a 2-min delay after each. The calculated amount of 7 solution was added to the Aβ after every second measurement. During the titration, the molar quantity of 7 varied between 0–35 µM. For a single measurement, the correlation function and distribution of the apparent hydrodynamic diameter (dh) over the scattered intensity of the particles were determined on the basis of 14 scans. […]

[4] = biological target: T3, Aβ oligomers (HMW and LMW fractions) (Homo sapiens, UniProt P05067); assay: SEC analysis of Aβ oligomer – ligand mixtures (affinity precipitation); conditions: 50 µM Aβ oligomers, injected after filtration
T3 construct: a depsipeptide derivative of Aβ(1–42) was utilized; made in house; host or cells: chemical peptide synthesis (no expression host)
Experimental: This hypothesis was tested via SEC analysis (Figure 10A). Mixtures of 50 µM Aβ oligomers with 7 in 0.25 and 1.0 equivalents were injected on the SEC column after filtration. […] We concluded that the affinity precipitation occurs for the HMW component, but the LMW fraction is also affected at higher ligand concentrations. […] Thus it was possible to test if the LMW fraction co-elutes with 7. […] The HMW precipitate was also tested for the presence of 7 with LC-MS, and the result confirmed the heterocomplex nature of the product (Figure 10C).
Figure 10 Lower tendency of the LMW Aβ oligomer fraction to affinity precipitation. (A) SEC analysis of pure Aβ oligomers (black) and mixtures of 50 µM Aβ oligomers with 7 in 0.25 (green) and 1.0 (blue) equivalents. The samples were injected on the SEC column after filtration. […] (B) LC-MS results on the LMW fraction taken at 19 min. […] (C) LC-MS results on the HMW precipitate, which confirmed the heterocomplex nature of the product.
iso-Aβ(1–42) was dissolved in sodium hydrocarbonate buffered saline (pH 7.4) to 50 µM and incubated for 24 h at 37°C. The oligomeric Aβ was loaded onto an Äkta Purifier FPLC system (GE Healthcare, UK) equipped with a Superose 6 10 300 column. Sample was eluted at a flow rate of 0.5 ml/min. FPLC chromatogram was taken at 280 nm and 1 ml fractions were collected during the separation.

[5] = biological target: T1, Aβ oligomers; assay: Transmission electron microscopy of Aβ oligomers with ligand; conditions: 72 µM Aβ oligomer + 36 µM ligand
Experimental: The concentration-dependent increase of the particle size described above raised the question if this phenomenon was linked to an accelerated fibrillization or to any form of conformational remodeling of the Aβ oligomers. […] The shape of the aggregates was unequivocally different from that of the mature fibrils.
Figure 8 Affinity precipitation as detected by TEM. (A) TEM image of the 72 µM Aβ oligomer. (B) TEM image of the 72 µM Aβ oligomer upon addition of 36 µM 7.
Oligomer solution was placed on formvar-carbon-coated 400-mesh copper grids (Electron Microscopy Sciences, Washington, PA) and stained negatively with uranyl acetate. The aggregates were characterized by TEM on a Philips CM 10 transmission electron microscope (FEI Company, Hillsboro, Oregon, USA) operating at 100 kV. Images were taken with a Megaview II Soft Imaging System, routinely at magnifications of ×46000 and ×64000, and analyzed with an AnalySis® 3.2 software package (Soft Imaging System GmbH, Münster, Germany).

Structure (SMILES): N=C(N)NCCC[C@@H](CC(=O)N[C@H]1CCCC[C@@H]1C(=O)N[C@H]1CCCC[C@@H]1C(=O)N[C@@H](CC(=O)O)CC(=O)N[C@H]1CCCC[C@@H]1C(=O)NCC(=O)NCC(=O)N[C@@H](CSC1CC(=O)N(CCC(=O)NCCNC(=O)CCN(CCC(=O)NCCNC(=O)CCN2C(=O)CC(SC[C@H](NC(=O)CNC(=O)CNC(=O)[C@H]3CCCC[C@@H]3NC(=O)C[C@H](CC(=O)O)NC(=O)[C@H]3CCCC[C@@H]3NC(=O)[C@H]3CCCC[C@@H]3NC(=O)C[C@H](CCCNC(=N)N)NC(=O)[C@H]3CCCC[C@@H]3N)C(N)=O)C2=O)CCN(CCC(=O)NCCNC(=O)CCN2C(=O)CC(SC[C@H](NC(=O)CNC(=O)CNC(=O)[C@H]3CCCC[C@@H]3NC(=O)C[C@H](CC(=O)O)NC(=O)[C@H]3CCCC[C@@H]3NC(=O)[C@H]3CCCC[C@@H]3NC(=O)C[C@H](CCCNC(=N)N)NC(=O)[C@H]3CCCC[C@@H]3N)C(N)=O)C2=O)CCC(=O)NCCNC(=O)CCN2C(=O)CC(SC[C@H](NC(=O)CNC(=O)CNC(=O)[C@H]3CCCC[C@@H]3NC(=O)C[C@H](CC(=O)O)NC(=O)[C@H]3CCCC[C@@H]3NC(=O)[C@H]3CCCC[C@@H]3NC(=O)C[C@H](CCCNC(=N)N)NC(=O)[C@H]3CCCC[C@@H]3N)C(N)=O)C2=O)C1=O)C(N)=O)NC(=O)[C@H]1CCCC[C@@H]1N (stereo partly drawn) [Compound 7]
- N (ITC stoichiometry, number of binding sites for monomer; first or single stage) [1]: 0.041±0.00089 and 0.041
- N' (ITC stoichiometry, lower affinity interaction) [1]: 0.18±0.002 and 0.18
- ΔHb (ITC; first binding step for 7, single stage for 8) [1]: 7.24 ± 0.05 kcal/mol
- ΔHb' (ITC, lower affinity interaction) [1]: 2.58 ± 0.02 kcal/mol
- Binding in ITC titration with monomeric Aβ sample [2]: did not exhibit submicromolar binding
- Concentration-dependent precipitation of Aβ oligomers during titration (ITC/DLS) [3]: the precipitation started just before the equivalence point of the second stage
- SEC: effect on HMW and LMW Aβ fractions at 0.25 equivalents of ligand ([4]; 0.25 equivalents): the HMW fraction fully precipitated and disappeared from the SEC chromatogram, whereas the LMW fraction remained intact
- SEC: effect on HMW and LMW Aβ fractions at 1.0 equivalents of ligand ([4]; 1.0 equivalents): the HMW fraction again disappeared and a partial decrease was observed for the LMW fraction
- TEM: effect on Aβ oligomer particle morphology [5]: caused association of the spherical oligomers a few nm in size into bundles of aggregates in the μm range
